Test results published in EPA's ToxValDB 9.5 (doi:10.2903/j.efsa.2008.122r).
≈ marks a conversion by molar mass, not a printed value.

Assays:
Oncorhynchus mykiss = conditions: chronic/long-term; duration: 35 days; growth
Rattus norvegicus = conditions: for NOAEL: body weight
Aphidius rhopalosiphi = conditions: not reported
Cyprinus carpio = conditions: acute; duration: 96 hours; mortality
Apis mellifera = conditions: acute; duration: 48 hours; dermal; mortality
Daphnia magna = conditions: chronic/long-term; duration: 21 days

O=C(Nc1ccc(F)cc1F)c1cccnc1Oc1cccc(C(F)(F)F)c1 [Diflufenican]
NOEC (Oncorhynchus mykiss): 0.015 mg/L
LD50 (Rattus norvegicus; acute, oral, mortality): > 5000 mg/kg
NOAEL (Rattus norvegicus; chronic, duration: 2 years): 23.3 mg/kg-day
NOAEL (Rattus norvegicus; reproduction developmental, M): 35.5 mg/kg-day
NOAEL (Rattus norvegicus; subchronic, duration: 13 weeks, oral): 19.5 mg/kg-day
LC50 (Tagia sp.; acute, duration: 14 days, mortality): > 1000 mg/kg
NOEC (Tagia sp.; chronic/long-term, reproduction): 1000 mg/kg
LEL (Aphidius rhopalosiphi; mortality): 188 g/ha
LEL (Aphidius rhopalosiphi; reproduction): 188 g/ha
LC50 (Cyprinus carpio): 0.0985 µg/mL (≈ 0.25 µM)
LD50 (Apis mellifera): > 100 µg/piece
LD50 (Bird; acute, oral, unspecified, mortality): > 2150 mg/kg
NOEC (Bird; reproductive): 91.8 mg/kg
NOEC (Daphnia magna): 0.052 mg/L
